IC50, EC50 and Activity data for twelve compounds are collected here from ChEMBL document CHEMBL1149429, “Privileged structure-based quinazolinone natural product-templated libraries: identification of novel tubulin polymerization inhibitors” (Bioorg Med Chem Lett, 2006).

One assay concerns DU-145. Description: Antiproliferative activity against DU145 cell line by MTS assay. The class given is functional, cell-based. Conditions: Homo sapiens. A general note: Tetrazolium dyes change colour on reduction, which living cells bring about.
In the next assay the test system is NCI-H460. Description: Antiproliferative activity against NCI-H460 cell line by MTS assay. The class given is functional, cell-based. Conditions: Homo sapiens.
In a further assay the test system is A549. Description: Antiproliferative activity against A549 cell line by MTS assay. The class given is functional, cell-based. The note with it: Homo sapiens.
A further assay relates to MDA-MB-231. In words: Antiproliferative activity against MDA-MB-231 cell line by MTS assay. The class given is functional, cell-based. The note with it: Homo sapiens.
Another assay deals with Tubulin. In words: Effect on induction of mitotic arrest by phosphohistone H3 (pH3) assay. The class given is functional.
The target in a further assay is Tubulin (Homo sapiens) (UniProt P68371+Q9H4B7+P0DPH7+P68366+Q13509+Q71U36+P04350+Q3ZCM7+P07437+P68363+Q9BQE3+Q6PEY2+Q13885+Q9BVA1+Q9BUF5). In words: Inhibitory activity against tubulin polymerization. The class given is protein-complex assay.
The test system of another assay is HMEC. In words: Antiproliferative activity against HMEC cell line by MTS assay. Conditions: Homo sapiens. The class given is functional, cell-based.
Another assay has as its system SF-268. Description: Antiproliferative activity against SF268 cell line by MTS assay. Conditions: Homo sapiens. The class given is functional, cell-based.

The source made the active and inactive calls. No cut-off for these calls is given here.

Take `COc1cc(/C=C2\CCCn3c2nc2ccc(I)cc2c3=O)cc(OC)c1O`: the IC50 (usually the concentration that inhibits the measured activity by half) with DU-145 is 10.3 µM; in the assay on NCI-H460 it was 4.31 µM; with A549 it was 10.6 µM; with MDA-MB-231 it was greater than 20 µM; in the assay on HMEC, greater than 20 µM; in the assay on SF-268, 11.2 µM. Besides, on Tubulin, the EC50 (usually the concentration giving half of the maximal effect) stood at 10.6 µM. Further, the outcome on Tubulin (Homo sapiens) was Active.

`COc1cc(/C=C2\CCCn3c2nc2c(C)cccc2c3=O)cc(OC)c1O`: the IC50 is 2.63 µM in the assay with DU-145; 1.5 µM in the assay on NCI-H460; 3.17 µM in the assay with A549; 11.2 µM with MDA-MB-231; greater than 20 µM in the assay on HMEC; 3.48 µM in the assay with SF-268. The response at Tubulin was half-maximal at 1.64 µM (EC50). Besides, the outcome on Tubulin (Homo sapiens) was Active.

Turning to `COc1cc(/C=C2\CCCn3c2nc2c(C)cc(C)cc2c3=O)cc(OC)c1O`, the IC50 in the assay on DU-145 is 0.79 µM; with NCI-H460, 0.24 µM; in the assay with A549, 0.55 µM; in the assay on MDA-MB-231, 2.09 µM; with HMEC it was greater than 20 µM; with SF-268 it was 0.83 µM. Further, the response at Tubulin was half-maximal at 0.26 µM (EC50). Further, the result on Tubulin (Homo sapiens) was Active.

Take `COc1cc(/C=C2\CCCn3c2nc2ccc(Cl)cc2c3=O)cc(OC)c1O`: the IC50 was 18.3 µM in the assay on DU-145; 8.63 µM with NCI-H460; greater than 20 µM with A549; greater than 20 µM with MDA-MB-231; greater than 20 µM in the assay on HMEC; 18.6 µM in the assay with SF-268. Besides, on Tubulin (Homo sapiens), the outcome was Active.

Turning to `COc1cc(/C=C2\CCCn3c2nc2ccc(C)cc2c3=O)cc(OC)c1O`, the IC50 in the assay with DU-145 is 14.7 µM; with NCI-H460 it was 3.2 µM; with A549, greater than 20 µM; with MDA-MB-231, greater than 20 µM; in the assay with HMEC, greater than 20 µM; with SF-268 it was 11.5 µM. Besides, the outcome on Tubulin (Homo sapiens) was Active.

Take `COc1cc(/C=C2\CCCn3c2nc2ccc(Br)cc2c3=O)cc(OC)c1O`: the IC50 in the assay with DU-145 is 8.47 µM; in the assay on NCI-H460, 1.98 µM; in the assay on A549, 11.7 µM; in the assay with MDA-MB-231 it was greater than 20 µM; in the assay on HMEC, greater than 20 µM; in the assay with SF-268 it was 6.72 µM. For the same compound, a half-maximal response on Tubulin (EC50) required 2.38 µM. For the same compound, the result on Tubulin (Homo sapiens) was Active.

As to `COc1cc(/C=C2\CCCn3c2nc2ccc(F)cc2c3=O)cc(OC)c1O`, the half-maximal inhibitory concentration (IC50) in the assay on DU-145 is 14.2 µM; in the assay on NCI-H460, 3.91 µM; in the assay with A549, 9.43 µM; in the assay with MDA-MB-231, greater than 20 µM; in the assay with HMEC, greater than 20 µM; with SF-268, 14.1 µM. Also, the outcome on Tubulin (Homo sapiens) was Active.

As for `COc1ccc2nc3n(c(=O)c2c1)CCC/C3=C\c1cc(OC)c(O)c(OC)c1`, the IC50 with DU-145 was 10.3 µM; in the assay with NCI-H460 it was 3.71 µM; in the assay with A549, greater than 20 µM; in the assay with MDA-MB-231 it was greater than 20 µM; in the assay on HMEC, greater than 20 µM; with SF-268, greater than 20 µM. Moreover, on Tubulin (Homo sapiens), the result was Active.

As to `COc1cc(/C=C2\CCCn3c2nc2c(OC)cccc2c3=O)cc(OC)c1O`, the IC50 with DU-145 is 0.51 µM; in the assay with NCI-H460, 0.33 µM; with A549, 0.69 µM; in the assay on MDA-MB-231 it was 1.3 µM; in the assay on HMEC, greater than 20 µM; in the assay on SF-268, 0.79 µM. This compound returned an EC50 on Tubulin of 0.54 µM. On Tubulin (Homo sapiens), the outcome was Active.

Take `COc1cc(/C=C2\CCCn3c2nc2ccc(O)cc2c3=O)cc(OC)c1O`: the half-maximal inhibitory concentration (IC50) in the assay with DU-145 is greater than 20 µM; in the assay on NCI-H460 it was 14.9 µM; in the assay with A549, greater than 20 µM; in the assay on MDA-MB-231 it was greater than 20 µM; in the assay with HMEC it was greater than 20 µM; with SF-268, greater than 20 µM. Moreover, at Tubulin (Homo sapiens), the result was Active.

Consider `COc1cc(/C=C2\CCCn3c2nc2c(O)cccc2c3=O)cc(OC)c1O`, for which the 50% inhibitory concentration (IC50) in the assay with DU-145 was 3.11 µM; in the assay with NCI-H460 it was 1.36 µM; with A549 it was 5.49 µM; with MDA-MB-231, 7.72 µM; in the assay with HMEC it was greater than 20 µM; with SF-268 it was 4.76 µM. This compound showed an EC50 at Tubulin of 1.16 µM. On Tubulin (Homo sapiens), the result was Active.

In the case of `CC(=O)O[C@H]1C(=O)[C@@]2(C)[C@H]([C@H](OC(=O)c3ccccc3)[C@]3(O)C[C@H](OC(=O)[C@H](O)[C@@H](NC(=O)c4ccccc4)c4ccccc4)C(C)=C1C3(C)C)[C@]1(OC(C)=O)CO[C@@H]1C[C@@H]2O` [PACLITAXEL], the IC50 in the assay on NCI-H460 came to 0.012 µM; with A549 it was 0.013 µM. On Tubulin, this compound came in with a 50% effective concentration (EC50) of 0.031 µM.
